Measurements published in publication PMC9866218, “Characterization and Chemical Synthesis of Cm39 (α-KTx 4.8): A Scorpion Toxin That Inhibits Voltage-Gated K^+ Channel KV1.2 and Small- and Intermediate-Conductance Ca^2+-Activated K^+ Channels KCa2.2 and KCa3.1” (Toxins, 2023).
“Also recorded” adds a separate entry of the source.

How the values were obtained:
hKCa3.1 = molecular target: T1, hKCa3.1 (Homo sapiens, UniProt O15554); assay: Whole-cell patch-clamp, block of KCa3.1 current; type: cell-based
T1 construct: EGFP (vector pEGFP-C1); expressed in transfected cells; host or cells: CHO cells, transient transfection
Excerpt: (§1) We, therefore, aimed at testing the pharmacological activity of sCm39 on a battery of various potassium and sodium ion channels. Among the tested channels were six members of human voltage-gated K^+ (hKV) channels from Shaker family, hKV1.1-hKV1.6 (Figure 3A–F) and three members of Ca^2+-activated potassium channel; hKCa2.2 (SK2, Figure 3I), the small-conductance Ca^2+-activated channel; hKCa3.1 (IKCa1, SK4. Figure 3J), the intermediate-conductance Ca^2+-activated channel expressed in T lymphocytes; and mKCa1.1 (BK, Slo1, MaxiK, Figure 3H), the large-conductance voltage- and Ca^2+-activated channel of mice. In addition, we also screened the effect of Cm39 on hKV11.1 (hERG1, Figure 3G), a voltage-gated cardiac K^+ channel, and two human voltage-gated sodium (hNaV) channels, hNaV1.4 (Figure 3K) and hNaV1.5 (Figure 3L), expressed in skeletal and cardiac muscles, respectively. These ion channels were heterologously expressed in the CHO or HEK cell lines except for KV1.3. Human peripheral T lymphocytes. They were stimulated with Phytohemagglutinin A (PHA) to increase the KV1.3 channel expression, and Ca^2+-free intracellular solution was used to avoid KCa3.1 channel activation. Appropriate depolarization protocols were used to record ionic currents in voltage-clamped cells (see Figure 3 insets and Material and Methods for details). Freshly dissolved sCm39 in extracellular solution was applied at 1 µM concentration on the cell using a custom-built micro-perfusion system at ~200 µL/min flow rate.
The whole-cell K^+ currents of CHO cells transiently expressing KCa2.2 or KCa3.1 channels were recorded sequentially by applying the 150 ms long voltage ramp to +50 mV from Vh of −120 mV every 10 s in the presence of control solution or upon perfusing the cell with different concentrations of sCm39. Normalized peak currents were calculated and plotted as function of time as shown in Figure 5A for KCa2.2 and in Figure 5C for KCa3.1 in the presence of the toxin at various concentrations and upon wash-out. […] RCF values were determined at equilibrium block in the presence of various concentrations of sCm39 and fitted with the Hill equation (see Materials and Methods for details).
Chinese hamster ovary (CHO) cells (gift from Yosef Yarden, Weizmann Institute of Science, Rehovot, Israel) were maintained by culturing in Dulbecco’s modified Eagle medium (DMEM, Gibco) supplemented with 2 mM L-glutamine, 10% FBS, 100 µg/mL streptomycin and 100 U/mL penicillin-g (Sigma-Aldrich) at a density of 0. 5−1×10^6 cells per mL in a humidified incubator at 37 °C and 5% CO2. Cells were passaged 3 times in a week following a 2–5 min incubation in 0.05% trypsin-EDTA solution at 37 °C. Cultures were used up to passage number 20. PCR-based tests were routinely used to detect mycoplasma infection, only mycoplasma-free cultures were used for experiments.
Those plasmids which lack a fluorescent tag were co-transfected with a plasmid encoding GFP. Transfections were performed at a GFP:channel DNA molar ratio of 1:10 using the Lipofectamine 2000 kit (Invitrogen) according to the manufacturer’s protocol. […] Generally, currents were recorded 24 to 48 h post transfection.
For the measurement of KV1.x, mKCa1.1 and NaV1.x currents the extracellular solution was composed of (in mM) 145 NaCl, 5 KCl, 2.5 CaCl2, 1 MgCl2, 10 HEPES and 5.5 glucose, pH 7.35.

mKCa1.1 = type: cell-based, mice; settings: HEK 293 cells
Excerpt: as §1, with “rate. […]” for “rate.”
Whole-cell currents were recorded in voltage-clamped cells following standard protocols by using a Multiclamp 700B amplifier connected to a computer with Axon Digidata1440 digitizer and for data acquisition, Clampex 10.7 software was used (Molecular Devices). […]

T1 sequence (O15554 whole entry): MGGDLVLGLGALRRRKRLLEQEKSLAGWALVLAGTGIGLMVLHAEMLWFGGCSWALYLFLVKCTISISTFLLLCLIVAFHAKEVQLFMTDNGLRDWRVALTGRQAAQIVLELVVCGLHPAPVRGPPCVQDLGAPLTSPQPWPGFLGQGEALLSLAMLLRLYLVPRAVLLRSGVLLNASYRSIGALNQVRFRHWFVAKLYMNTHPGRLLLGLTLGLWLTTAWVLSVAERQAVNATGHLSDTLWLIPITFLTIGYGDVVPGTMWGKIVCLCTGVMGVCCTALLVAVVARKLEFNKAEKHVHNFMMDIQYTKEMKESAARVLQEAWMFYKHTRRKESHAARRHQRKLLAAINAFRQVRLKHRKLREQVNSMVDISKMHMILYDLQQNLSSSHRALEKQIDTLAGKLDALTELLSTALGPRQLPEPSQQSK

Compound: CC[C@H](C)[C@@H]1NC(=O)[C@H](C)NC(=O)[C@H](C)NC(=O)[C@H](CCCCN)NC(=O)[C@@H]2CSSC[C@@H](C(=O)N[C@@H](Cc3ccc(O)cc3)C(=O)N[C@@H](Cc3ccc(O)cc3)C(=O)O)NC(=O)[C@H](CCCCN)NC(=O)[C@@H]3CSSC[C@H](NC(=O)[C@H](CCC(=O)O)NC(=O)[C@H](CO)NC(=O)[C@H](CO)NC(=O)[C@H](CO)NC(=O)[C@H](CCCCN)NC(=O)[C@@H](NC(=O)[C@H](CCCCN)NC(=O)[C@H](Cc4c[nH]cn4)NC(=O)[C@H](CC(N)=O)NC(=O)[C@@H](NC(=O)[C@H](Cc4ccccc4)NC(=O)[C@@H](N)[C@@H](C)O)[C@@H](C)CC)CSSC[C@H](NC(=O)[C@H](CCCCN)NC(=O)CNC(=O)[C@H](CO)NC(=O)[C@H](C)NC(=O)[C@H](CCCNC(=N)N)NC(=O)CNC1=O)C(=O)N[C@@H]([C@@H](C)CC)C(=O)N[C@@H](CC(N)=O)C(=O)N[C@@H](CO)C(=O)N[C@@H]([C@@H](C)O)C(=O)N3)C(=O)N[C@@H](CC(C)C)C(=O)N1CCC[C@H]1C(=O)N[C@@H](C)C(=O)N2 [Cm39]
- reduction of current at equilibrium block (hKCa3.1; 1 µM, CHO cells, current at +48 mV, n = 3−5 (Figure 3M)): 86%
- toxin association and dissociation kinetics (hKCa3.1; CHO cells): fast
- toxin association and dissociation kinetics (hKCa3.1; CHO cells, listed as sCm39): very fast
- Hill coefficient (H) (hKCa3.1; concentration-response of KCa3.1 block, CHO cells): 0.68
- development and almost full recovery from equilibrium block (hKCa3.1; pulses separated by 10 s): 1–3 depolarization pulses
- reversibility of KCa3.1 block (hKCa3.1; wash-out with toxin-free solution): fully reversible
- inhibition (in words) (mKCa1.1; 1 μM): does not inhibit; also recorded: did not show any effect
- decrease in current (mKCa1.1; 1 µM, 3−5 min, n = 3−5): < 3%
